Assay results reported in US20100015141A1, “4-PHENOXY-6-ARYL-1H-PYRAZOLO[3,4-D]PYRIMIDINE AND N-ARYL-6-ARYL-1H-PYRAZOLO[3,4-D]PYRIMIDIN-4-AMINE COMPOUNDS, THEIR USE AS MTOR KINASE AND PI3 KINASE INHIBITORS, AND THEIR SYNTHESES” (Wyeth, priority 2008, published 2010).

Assays:
Format in all cases: biochemical
[1] = biological target: PI3K-γ (Homo sapiens, UniProt P48736); test: PI3K-gamma fluorescence polarization assay; conditions: 20 μM PIP2, 25 μM ATP
Procedure: (§1) The reaction buffer was 20 mM HEPES pH7.5, 2 mM MgCl2, 0.05% CHAPS, and 0.01% βME (added fresh). The substrate solution was 40 μM PIP2 (diC8, Echelon, Salt Lake City Utah cat #P-4508, 1 mM in water) and 50 μM ATP in the reaction buffer. Nunc 384-well black polypropylene fluorescent plates were used for PI3K assays. The assay is run by putting 9.5 μl of freshly diluted enzyme in the reaction buffer per well, adding 0.5 μl of diluted drug or DMSO, and mixing. Then 10 μl of the substrate solution is added to each well to start the reaction. A final concentration of 20 μM PIP2 and 25 μM ATP in the reaction was used. Reactions were allowed to proceed for 30-60 minutes at room temperature. After 30-60 minutes, 20 μl of a solution of 10 nM TAMRA detector (Red detector probe-Echelon) and 2.5 uM of GST-murineGRP (1.5 mg/ml in 17% glycerol) was added per well to stop the reaction. The resulting solution was mixed well and allowed to stand for 90-110 minutes before reading plate. Assay Plates were read on Perkin-Elmer Envision plate readers with appropriate filters for Tamra [BODIPY-TMRI(1,3,4,5)P4]. Data obtained were used to calculate enzymatic activity and enzyme inhibition by inhibitor compounds. It is important to keep Red probe solutions dark. This procedure is adapted from Echelon Biosciences Inc procedure for their PI3-Kinase fluorescence polarization activity Assay kit Product number K-1100.

[2] = biological target: PI3K-α (Homo sapiens, UniProt P42336); test: PI3K-alpha fluorescence polarization assay; conditions: 20 μM PIP2, 25 μM ATP
Procedure: as §1

[3] = biological target: mTOR (Homo sapiens, UniProt P42345); test: mTOR enzyme assay (DELFIA, His6-S6K phosphorylation); parameters: FLAG; conditions: 100 μM ATP, 1.25 μM His6-S6K

PI3K-α, sequence (P42336 whole entry, species assumed): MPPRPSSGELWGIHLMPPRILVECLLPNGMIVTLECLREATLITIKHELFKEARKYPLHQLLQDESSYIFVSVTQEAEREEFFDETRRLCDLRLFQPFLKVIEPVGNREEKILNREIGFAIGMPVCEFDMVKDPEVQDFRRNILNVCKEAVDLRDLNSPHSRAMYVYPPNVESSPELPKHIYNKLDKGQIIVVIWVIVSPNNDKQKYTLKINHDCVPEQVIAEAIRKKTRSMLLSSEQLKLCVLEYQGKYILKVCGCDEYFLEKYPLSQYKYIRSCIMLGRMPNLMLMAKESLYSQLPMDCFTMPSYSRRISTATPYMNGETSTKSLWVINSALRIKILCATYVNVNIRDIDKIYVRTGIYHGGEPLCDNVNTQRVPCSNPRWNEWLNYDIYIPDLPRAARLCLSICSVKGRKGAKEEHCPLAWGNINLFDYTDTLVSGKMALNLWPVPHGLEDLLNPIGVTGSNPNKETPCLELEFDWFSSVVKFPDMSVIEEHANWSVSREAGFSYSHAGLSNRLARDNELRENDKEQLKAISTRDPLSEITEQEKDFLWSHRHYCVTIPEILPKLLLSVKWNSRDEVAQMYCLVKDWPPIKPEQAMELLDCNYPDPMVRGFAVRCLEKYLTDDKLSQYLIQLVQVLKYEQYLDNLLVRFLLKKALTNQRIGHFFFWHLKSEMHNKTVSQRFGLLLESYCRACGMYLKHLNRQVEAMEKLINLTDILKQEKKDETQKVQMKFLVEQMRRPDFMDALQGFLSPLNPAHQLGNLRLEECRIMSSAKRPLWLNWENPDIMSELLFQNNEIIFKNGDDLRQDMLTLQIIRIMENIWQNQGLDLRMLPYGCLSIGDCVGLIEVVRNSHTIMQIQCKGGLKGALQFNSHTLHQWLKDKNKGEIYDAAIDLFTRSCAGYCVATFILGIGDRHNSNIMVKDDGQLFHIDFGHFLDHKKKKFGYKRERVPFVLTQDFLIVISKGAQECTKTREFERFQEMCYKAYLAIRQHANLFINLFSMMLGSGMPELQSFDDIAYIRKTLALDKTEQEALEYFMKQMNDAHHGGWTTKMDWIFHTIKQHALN
PI3K-α, sequence (P27986 whole entry partner, species assumed): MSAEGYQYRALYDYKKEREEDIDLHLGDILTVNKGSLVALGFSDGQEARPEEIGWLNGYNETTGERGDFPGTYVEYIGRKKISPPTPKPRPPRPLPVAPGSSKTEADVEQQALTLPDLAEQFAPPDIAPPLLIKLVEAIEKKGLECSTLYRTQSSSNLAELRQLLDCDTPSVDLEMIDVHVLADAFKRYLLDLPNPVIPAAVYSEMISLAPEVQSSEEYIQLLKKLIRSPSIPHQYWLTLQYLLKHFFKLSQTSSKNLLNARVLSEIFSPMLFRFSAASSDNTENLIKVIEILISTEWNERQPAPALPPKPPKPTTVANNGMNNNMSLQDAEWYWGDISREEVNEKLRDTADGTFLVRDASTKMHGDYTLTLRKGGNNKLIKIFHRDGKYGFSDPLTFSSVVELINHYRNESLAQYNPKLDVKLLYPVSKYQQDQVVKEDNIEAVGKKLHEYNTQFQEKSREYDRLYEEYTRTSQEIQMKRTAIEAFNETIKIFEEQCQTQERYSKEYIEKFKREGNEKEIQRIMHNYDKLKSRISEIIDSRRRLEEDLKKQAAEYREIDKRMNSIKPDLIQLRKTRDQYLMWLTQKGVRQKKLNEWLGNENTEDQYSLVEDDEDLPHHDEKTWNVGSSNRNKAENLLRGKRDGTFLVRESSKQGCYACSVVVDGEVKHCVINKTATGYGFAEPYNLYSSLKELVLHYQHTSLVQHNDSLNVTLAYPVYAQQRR
PI3K-γ, sequence (P48736 whole entry, species assumed): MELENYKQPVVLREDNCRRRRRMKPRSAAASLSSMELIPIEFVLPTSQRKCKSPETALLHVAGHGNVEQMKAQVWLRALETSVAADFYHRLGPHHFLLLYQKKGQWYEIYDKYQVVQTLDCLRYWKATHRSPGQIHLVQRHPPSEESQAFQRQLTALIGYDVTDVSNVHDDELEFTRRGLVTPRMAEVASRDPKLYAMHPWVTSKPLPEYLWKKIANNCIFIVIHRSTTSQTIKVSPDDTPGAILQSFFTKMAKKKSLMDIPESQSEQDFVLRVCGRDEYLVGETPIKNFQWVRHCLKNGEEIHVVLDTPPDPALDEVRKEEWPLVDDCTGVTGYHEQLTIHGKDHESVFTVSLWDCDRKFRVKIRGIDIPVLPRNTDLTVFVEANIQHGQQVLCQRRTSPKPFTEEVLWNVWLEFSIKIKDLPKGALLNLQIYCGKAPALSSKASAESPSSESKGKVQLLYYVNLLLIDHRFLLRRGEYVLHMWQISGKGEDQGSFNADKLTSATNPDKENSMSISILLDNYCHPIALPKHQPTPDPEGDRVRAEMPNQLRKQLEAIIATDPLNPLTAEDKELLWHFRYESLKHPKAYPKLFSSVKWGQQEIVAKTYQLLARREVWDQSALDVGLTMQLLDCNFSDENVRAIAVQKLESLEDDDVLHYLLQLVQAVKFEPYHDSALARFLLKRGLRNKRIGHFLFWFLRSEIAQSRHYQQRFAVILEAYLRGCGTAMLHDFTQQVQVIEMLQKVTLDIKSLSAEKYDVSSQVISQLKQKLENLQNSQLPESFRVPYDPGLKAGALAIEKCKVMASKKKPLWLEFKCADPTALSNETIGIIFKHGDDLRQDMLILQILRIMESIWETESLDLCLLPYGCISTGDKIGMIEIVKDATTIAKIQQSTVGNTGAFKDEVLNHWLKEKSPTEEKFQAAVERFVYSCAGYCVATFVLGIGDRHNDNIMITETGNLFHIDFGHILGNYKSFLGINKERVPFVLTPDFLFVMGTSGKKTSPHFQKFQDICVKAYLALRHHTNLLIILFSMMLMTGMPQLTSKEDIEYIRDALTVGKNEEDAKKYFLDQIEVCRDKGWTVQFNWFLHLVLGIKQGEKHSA

Row | SMILES | IC50 [1] [nM] | IC50 [2] [nM] | IC50 [3] [nM]
1 | Cn1ncc2c(Nc3ccc(C(N)=O)cc3)nc(-c3ccoc3)nc21 [Example 65, 4-{[6-(3-furyl)-1-methyl-1H-pyrazolo[3,4-d]pyrimidin-4-yl]amino}benzamide] | 1710 | 314 | 1300
2 | Cn1ncc2c(Oc3ccc4[nH]ccc4c3)nc(-c3cccc(Cl)c3)nc21 [Example 66, 6-(3-chlorophenyl)-4-(1H-indol-5-yloxy)-1-methyl-1H-pyrazolo[3,4-d]pyrimidine] | 1160 | 762 | > 20000
3 | Cn1ncc2c(Oc3ccc4[nH]ccc4c3)nc(-c3cccc([N+](=O)[O-])c3)nc21 [Example 67, 4-(1H-indol-5-yloxy)-1-methyl-6-(3-nitrophenyl)-1H-pyrazolo[3,4-d]pyrimidine] | 1260 | 660 | 16000
4 | Cn1ncc2c(Oc3ccc4[nH]ccc4c3)nc(-c3cccc(OCc4ccccc4Cl)c3)nc21 [Example 69, 6-{3-[(2-chlorobenzyl)oxy]phenyl}-4-(1H-indol-5-yloxy)-1-methyl-1H-pyrazolo[3,4-d]pyrimidine] | > 10000 | 10800 | > 20000
5 | COc1ccc(Oc2nc(-c3ccccc3)nc3c2cnn3C)cc1OC [Example 73, 4-(3,4-dimethoxyphenoxy)-1-methyl-6-phenyl-1H-pyrazolo[3,4-d]pyrimidine] | > 9600 | 1760 | 8200
6 | CC(=O)Nc1ccc(Oc2nc(-c3ccccc3)nc3c2cnn3C)cc1 [Example 74, N-{4-[(1-methyl-6-phenyl-1H-pyrazolo[3,4-d]pyrimidin-4-yl)oxy]phenyl}acetamide] | 1340 | 637 | 5500
7 | Cn1ncc2c(Oc3ccc(C(N)=O)cc3)nc(-c3ccccc3)nc21 [Example 75, 4-[(1-methyl-6-phenyl-1H-pyrazolo[3,4-d]pyrimidin-4-yl)oxy]benzamide] | 1720 | 1020 | 9200
8 | CNC(=O)Nc1ccc(-c2nc(Nc3ccc(C(N)=O)cc3)c3cnn(C)c3n2)cc1 [Example 77, 4-(1-methyl-6-(4-(3-methylureido)phenyl)-1H-pyrazolo[3,4-d]pyrimidin-4-ylamino)benzamide] | 2900 | 493 | 1700
9 | CNC(=O)Nc1cccc(-c2nc(Nc3ccc(C(N)=O)cc3)c3cnn(C)c3n2)c1 [Example 78, 4-(1-methyl-6-(3-(3-methylureido)phenyl)-1H-pyrazolo[3,4-d]pyrimidin-4-ylamino)benzamide] | 3600 | 277 | 775
10 | Cn1ncc2c(Nc3ccc(C(N)=O)cc3)nc(Nc3cccc(NC(=O)Nc4cccnc4)c3)nc21 [Example 80, 4-{[1-Methyl-6-({3-[(pyridin-3-ylcarbamoyl)amino]phenyl}amino)-1H-pyrazolo[3,4-d]pyrimidin-4-yl]amino}benzamide] | 2010 | 529 | 3450
11 | CN1CCN(C(=O)c2ccc(NC(=O)Nc3ccc(Nc4nc(Nc5ccc(C(N)=O)cc5)c5cnn(C)c5n4)cc3)cc2)CC1 [Example 81, 4-{[1-Methyl-6-({4-[({4-[(4-methylpiperazin-1-yl)carbonyl]phenyl}carbamoyl)amino]phenyl}amino)-1H-pyrazolo[3,4-d]pyrimidin-4-yl]amino}benzamide] | 6 | 0.4 | 17
12 | CN(C)C1CCN(C(=O)c2ccc(NC(=O)Nc3ccc(Nc4nc(Nc5ccc(C(N)=O)cc5)c5cnn(C)c5n4)cc3)cc2)C1 (stereo not drawn) [Example 83, 4-({6-[(4-{[(4-{[3-(Dimethylamino)pyrrolidin-1-yl]carbonyl}phenyl)carbamoyl]amino}phenyl)amino]-1-methyl-1H-pyrazolo[3,4-d]pyrimidin-4-yl}amino)benzamide] | 7 | 0.3 | 5
13 | CN(CCO)C(=O)c1ccc(NC(=O)Nc2ccc(Nc3nc(Nc4ccc(C(N)=O)cc4)c4cnn(C)c4n3)cc2)cc1 [Example 85, 4-({[4-({4-[(4-Carbamoylphenyl)amino]-1-methyl-1H-pyrazolo[3,4-d]pyrimidin-6-yl}amino)phenyl]carbamoyl}amino)-N-(2-hydroxyethyl)-N-methylbenzamide] | 11 | 0.4 | 9
14 | CN(C)CCNC(=O)Nc1ccc(Nc2nc(Nc3ccc(C(N)=O)cc3)c3cnn(C)c3n2)cc1 [Example 86, 4-[(6-{[4-({[2-(Dimethylamino)ethyl]carbamoyl}amino)phenyl]amino}-1-methyl-1H-pyrazolo[3,4-d]pyrimidin-4-yl)amino]benzamide] | 143 | 10 | 2200
15 | CC(C)N1CCN(C(=O)c2ccc(NC(=O)Nc3ccc(Nc4nc(Nc5ccc(C(N)=O)cc5)c5cnn(C)c5n4)cc3)cc2)CC1 [Example 87, 4-({1-Methyl-6-[(4-{[(4-{[4-(propan-2-yl)piperazin-1-yl]carbonyl}phenyl)carbamoyl]amino}phenyl)amino]-1H-pyrazolo[3,4-d]pyrimidin-4-yl}amino)benzamide] | 5 | 0.4 | 8
16 | Cn1ncc2c(Nc3ccc(C(N)=O)cc3)nc(Nc3ccc(NC(=O)NC4CC4)cc3)nc21 [Example 88, 4-{[6-({4-[(Cyclopropylcarbamoyl)amino]phenyl}amino)-1-methyl-1H-pyrazolo[3,4-d]pyrimidin-4-yl]amino}benzamide] | 263 | 27 | 44
17 | CC(C)NC(=O)Nc1ccc(Nc2nc(Nc3ccc(C(N)=O)cc3)c3cnn(C)c3n2)cc1 [Example 89, 4-{[1-Methyl-6-({4-[(propan-2-ylcarbamoyl)amino]phenyl}amino)-1H-pyrazolo[3,4-d]pyrimidin-4-yl]amino}benzamide] | 523 | 124 | 70
18 | CN1CCC(NC(=O)Nc2ccc(Nc3nc(Nc4ccc(C(N)=O)cc4)c4cnn(C)c4n3)cc2)CC1 [Example 91, 4-({1-Methyl-6-[(4-{[(1-methylpiperidin-4-yl)carbamoyl]amino}phenyl)amino]-1H-pyrazolo[3,4-d]pyrimidin-4-yl}amino)benzamide] | 3170 | 198 | 2000

Further lines, results first:

Row | IC50 [1] [nM] | IC50 [2] [nM] | IC50 [3] [nM] | SMILES
19 | > 10000 | 2460 | > 20000 | CC(C)c1ccc(-c2nc(Nc3ccc(C(N)=O)cc3)c3cnn(C)c3n2)cc1 [Example 61, 4-{[6-(4-isopropylphenyl)-1-methyl-1H-pyrazolo[3,4-d]pyrimidin-4-yl]amino}benzamide]
20 | 1590 | 603 | 4800 | Cn1cc(-c2nc(Nc3ccc(C(N)=O)cc3)c3cnn(C)c3n2)cn1 [Example 62, 4-{[1-methyl-6-(1-methyl-1H-pyrazol-4-yl)-1H-pyrazolo[3,4-d]pyrimidin-4-yl]amino}benzamide]
21 | 1030 | 1050 | > 20000 | Cn1ncc2c(Oc3ccc4[nH]ccc4c3)nc(-c3ccoc3)nc21 [Example 68, 6-(3-furyl)-4-(1H-indol-5-yloxy)-1-methyl-1H-pyrazolo[3,4-d]pyrimidine]
22 | 1350 | 580 | > 20000 | Cc1noc(C)c1-c1nc(Oc2ccc3[nH]ccc3c2)c2cnn(C)c2n1 [Example 72, 6-(3,5-dimethylisoxazol-4-yl)-4-(1H-indol-5-yloxy)-1-methyl-1H-pyrazolo[3,4-d]pyrimidine]
23 | 570 | 558 | 330 | Cn1ncc2c(Oc3ccc4[nH]ccc4c3)nc(-c3ccccc3)nc21 [Example 76, 4-(1H-indol-5-yloxy)-1-methyl-6-phenyl-1H-pyrazolo[3,4-d]pyrimidine]
24 | 5 | 0.2 | 7 | CN(C)C1CCN(C(=O)c2ccc(NC(=O)Nc3ccc(Nc4nc(Nc5ccc(C(N)=O)cc5)c5cnn(C)c5n4)cc3)cc2)CC1 [Example 82, 4-({6-[(4-{[(4-{[4-(Dimethylamino)piperidin-1-yl]carbonyl}phenyl)carbamoyl]amino}phenyl)amino]-1-methyl-1H-pyrazolo[3,4-d]pyrimidin-4-yl}amino)benzamide]
25 | 5 | 0.7 | 7 | Cn1ncc2c(Nc3ccc(C(N)=O)cc3)nc(Nc3ccc(NC(=O)Nc4ccc(C(=O)N5CCOCC5)cc4)cc3)nc21 [Example 84, 4-[(1-Methyl-6-{[4-({[4-(morpholin-4-ylcarbonyl)phenyl]carbamoyl}amino)phenyl]amino}-1H-pyrazolo[3,4-d]pyrimidin-4-yl)amino]benzamide]
26 | 75 | 2.5 | 12 | CNC(=O)c1ccc(Nc2nc(Nc3ccc(NC(=O)Nc4cccnc4)cc3)nc3c2cnn3C)cc1 [Example 90, N-Methyl-4-{[1-methyl-6-({4-[(pyridin-3-ylcarbamoyl)amino]phenyl}amino)-1H-pyrazolo[3,4-d]pyrimidin-4-yl]amino}benzamide]
